Bounds are passed on as bounds.

Experimental findings from patent US7265120B2, “Pyrazine derivatives and pharmaceutical use thereof” (Astellas Pharma Inc., priority 2004, dated 2007) are described below.

Data set [1] addresses human A2a receptor (Homo sapiens, UniProt P29274). Briefly: Adenosine antagonistic activity, radioligand binding ([3H]CGS 21680). The note with it: [3H]CGS 21680 20 nM. On the procedure:
(§1) Test 1: Adenosine Antagonistic Activity
(§2) The adenosine antagonistic activity [Ki (nM)] of the test compound was examined by radioligand binding techniques using 8-cyclopentyl-1,3-dipropylxanthine, [dipropyl-2,3-^3H(N)] ([^3H]DPCPX, 4.5 nM) for human A1 receptor and [^3H]CGS 21680 (20 nM) for human A2a receptor.

Data set [2] concerns the target T1, human A1 receptor (Homo sapiens, UniProt P30542).
T1 sequence (P30542 1-326): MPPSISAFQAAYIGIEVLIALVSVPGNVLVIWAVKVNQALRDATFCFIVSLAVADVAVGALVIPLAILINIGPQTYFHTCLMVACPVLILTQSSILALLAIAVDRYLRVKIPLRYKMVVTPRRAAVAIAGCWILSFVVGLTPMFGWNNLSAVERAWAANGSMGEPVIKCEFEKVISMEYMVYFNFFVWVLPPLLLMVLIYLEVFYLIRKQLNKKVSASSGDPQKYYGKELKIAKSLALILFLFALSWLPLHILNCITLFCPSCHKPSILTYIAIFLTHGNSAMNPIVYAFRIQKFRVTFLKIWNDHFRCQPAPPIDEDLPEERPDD
As to the kind of experiment: Adenosine antagonistic activity, radioligand binding ([3H]DPCPX). To be noted: [3H]DPCPX 4.5 nM. On the procedure: as §1, §2

Data set [3] concerns ddY mice. As to the kind of experiment: Anticatalepsy activity in mouse (haloperidol-induced catalepsy, bar test). The data set is classed as in vivo. To be noted: 3.2 mg/kg orally, ddY mice n=7; haloperidol 0.32 mg/kg i.p. 30 min after compound; measured 30 min after injection, up to 30 sec. Here is the method: Test 2: Anticatalepsy Activity in Mouse [I] Test Method
The test compound (3.2 mg/kg) was administered orally with ddY mice (n=7). Then, haloperidol (0.32 mg/kg) was injected intraperitoneally 30 min. after the administration of the compound. Thirty min. after the injection, the cataleptic responses of mice were measured. The forelimbs of each mouse were placed on a 3 cm high, 3 mm wide horizontal bar, and the duration of cataleptic posture was measured for up to 30 sec.

Chain of human A2a receptor (P29274 whole entry): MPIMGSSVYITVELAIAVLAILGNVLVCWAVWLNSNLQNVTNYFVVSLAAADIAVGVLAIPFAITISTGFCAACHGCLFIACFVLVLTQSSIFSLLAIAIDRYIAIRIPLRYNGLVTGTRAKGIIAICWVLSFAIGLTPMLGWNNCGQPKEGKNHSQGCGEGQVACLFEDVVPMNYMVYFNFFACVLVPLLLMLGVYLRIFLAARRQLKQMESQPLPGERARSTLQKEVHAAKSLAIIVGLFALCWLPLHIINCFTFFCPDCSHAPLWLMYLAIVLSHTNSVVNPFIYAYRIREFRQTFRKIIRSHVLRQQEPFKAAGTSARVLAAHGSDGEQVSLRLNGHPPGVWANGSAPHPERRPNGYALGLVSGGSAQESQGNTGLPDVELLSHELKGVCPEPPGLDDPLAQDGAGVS

On to `Cn1nc(-c2nc(C#N)c(N)nc2-c2ccccc2)ccc1=O` [Example 17, 3-Amino-6-(1-methyl-6-oxo-1,6-dihydro-3-pyridazinyl)-5-phenyl-2-pyrazinecarbonitrile], for which the melting point (as a rule, the temperature of the solid-liquid transition) was more than 250 °C. The inhibition constant Ki (commonly a dissociation constant, usually derived from enzyme kinetics or from competition with a known ligand) in data set [1] was 1.72 nM. Besides, the affinity in data set [2], expressed as Ki, was 11.2 nM. In addition, the “Manifestation rate of Catalepsy (number of mouse)” value (shortened to “Manifestation rate of Catalepsy”) in data set [3] is given as 0/7.
Regarding `CC(C)n1nc(-c2ncc(N)nc2-c2ccc(F)cc2)ccc1=O` [Example 36, 6-[5-Amino-3-(4-fluorophenyl)-2-pyrazinyl]-2-isopropyl-3(2H)-pyridazinone], the inhibition constant Ki amounted to 6.89 nM in data set [1] and 23 nM in data set [2]. Besides, the “Manifestation rate of Catalepsy” value in data set [3] is 0/7.
As to `CC(C)n1nc(-c2nc(Cl)c(N)nc2-c2ccc(F)cc2)ccc1=O` [Example 37, 6-[5-Amino-6-chloro-3-(4-fluorophenyl)-2-pyrazinyl]-2-isopropyl-3(2H)-pyridazinone], the Ki in data set [1] came to 2.65 nM; in data set [2], 15.9 nM. Moreover, in data set [3], the “Manifestation rate of Catalepsy” value is recorded as 0/7.
Regarding `CC(C)n1nc(-c2nc(Br)c(N=S(C)C)nc2-c2ccccc2)ccc1=O` [Example 66, 6-{6-bromo-5-[(dimethyl-lambda˜4˜-sulfanylidene)amino]-3-phenyl-2-pyrazinyl}-2-isopropyl-3(2H)-pyridazinone], the melting point was 220 to 224 °C. Moreover, the affinity in data set [1] corresponds to a Ki of 6.79 nM. The Ki in data set [2] is 16 nM. Also, in data set [3], the “Manifestation rate of Catalepsy” value is 1/7.
The matching figures for `CC(C)n1nc(-c2nc(C#Cc3ccccc3)c(N)nc2-c2ccccc2)ccc1=O` [Example 70, 6-[5-amino-3-phenyl-6-(phenylethynyl)-2-pyrazinyl]-2-isopropyl-3(2H)-pyridazinone]: 239 to 241 °C, 0.29 nM, 0.88 nM and 0/7.
The matching figures for `CC(C)n1nc(-c2nc(C#Cc3cncn3C)c(N)nc2-c2ccccc2)ccc1=O` [Example 75, 6-{5-amino-6-[(1-methyl-1H-imidazol-5-yl)ethynyl]-3-phenyl-2-pyrazinyl}-2-isopropyl-3(2H)-pyridazinone]: more than 250 °C, 0.25 nM, 0.72 nM and 0/7.
The matching figures for `CC(C)n1nc(-c2nc(NCc3ccco3)c(N)nc2-c2ccccc2)ccc1=O` [Example 134, 6-{5-amino-6-[(2-furylmethyl)amino]-3-phenyl-2-pyrazinyl}-2-isopropyl-3(2H)-pyridazinone]: 206.5 to 209 °C, 2.6 nM, 6.66 nM and 1/7.
Regarding `CC(C)n1nc(-c2nc(OC3CCN(Cc4ccccc4)C3)c(N)nc2-c2ccccc2)ccc1=O` (centres unmarked) [Example 176, 6-{5-amino-6-[(1-benzyl-3-pyrrolidinyl)oxy]-3-phenyl-2-pyrazinyl}-2-isopropyl-3(2H)-pyridazinone], the melting point is 179 to 181 °C.
On to `CC(C)n1nc(-c2nc(OC3CCN(Cc4ccccc4)CC3)c(N)nc2-c2ccccc2)ccc1=O` [Example 178, 6-{5-amino-6-[(1-benzyl-4-piperidinyl)oxy]-3-phenyl-2-pyrazinyl}-2-isopropyl-3(2H)-pyridazinone], for which the melting point is 148 to 150.5 °C.
`COCCOc1nc(-c2ccc(=O)n(C)n2)c(-c2ccccc2)nc1N` [Example 180, 6-[5-amino-6-(2-methoxyethoxy)-3-phenyl-2-pyrazinyl]-2-methyl-3(2H)-pyridazinone] returned a melting point of 139 to 141 °C.
The same measure, in the same setting: the figure for `Cn1nc(-c2nc(OCCN3CCOCC3)c(N)nc2-c2ccccc2)ccc1=O` [Example 181, 6-{5-amino-6-[2-(4-morpholinyl)ethoxy]-3-phenyl-2-pyrazinyl}-2-methyl-3(2H)-pyridazinone] is 185 to 187 °C; for `Cn1nc(-c2nc(OCc3ccccc3)c(N)nc2-c2ccccc2)ccc1=O` [Example 182, 6-[5-amino-6-(benzyloxy)-3-phenyl-2-pyrazinyl]-2-methyl-3(2H)-pyridazinone] it is 185 to 187 °C; for `Cn1nc(-c2nc(OCCCc3ccccc3)c(N)nc2-c2ccccc2)ccc1=O` [Example 183, 6-[5-amino-3-phenyl-6-(3-phenylpropoxy)-2-pyrazinyl]-2-methyl-3(2H)-pyridazinone] it is 91 to 94 °C.
On the same count and under the same terms, to `Cn1nc(-c2nc(OC3CCN(Cc4ccccc4)CC3)c(N)nc2-c2ccccc2)ccc1=O` [Example 185, 6-{5-amino-6-[(1-benzyl-4-piperidinyl)oxy]-3-phenyl-2-pyrazinyl}-2-methyl-3(2H)-pyridazinone] belongs 147 to 149 °C; to `Cn1nc(-c2nc(Oc3ccc(F)cc3)c(N)nc2-c2ccccc2)ccc1=O` [Example 186, 6-[5-amino-6-(4-fluorophenoxy)-3-phenyl-2-pyrazinyl]-2-methyl-3(2H)-pyridazinone], 229 to 231 °C.
The compound `Cn1nc(-c2nc(O)c(N)nc2-c2ccccc2)ccc1=O` [Example 187, 6-(5-amino-6-hydroxy-3-phenyl-2-pyrazinyl)-2-methyl-3(2H)-pyridazinone] yielded a melting point of more than 250 °C.
Regarding `Cn1nc(-c2nc(OCCc3ccccc3)c(N)nc2-c2ccccc2)ccc1=O` [Example 187, 6-[5-amino-3-phenyl-6-(2-phenylethoxy)-2-pyrazinyl]-2-methyl-3(2H)-pyridazinone], the melting point was 156 to 159 °C.
`CC(C)n1nc(-c2nc(C#N)c(N)nc2-c2ccccc2Br)ccc1=O` [Example 188, 3-amino-5-(2-bromophenyl)-6-(1-isopropyl-6-oxo-1,6-dihydro-3-pyridazinyl)-2-pyrazinecarbonitrile] returned a melting point of 240 to 243 °C.
Compound `CC(C)n1nc(-c2nc(C#N)c(N=CN(C)C)nc2-c2ccccc2Br)ccc1=O` [Example 188, N′-[6-(2-bromophenyl)-3-cyano-5-(1-isopropyl-6-oxo-1,6-dihydro-3-pyridazinyl)-2-pyrazinyl]-N,N-dimethylimidoformamide] gave a melting point of 197 to 199 °C.
Turning to `CC(C)n1nc(-c2nc(C(N)=O)c(N)nc2-c2ccccc2Br)ccc1=O` [Example 190, 3-amino-5-(2-bromophenyl)-6-(1-isopropyl-6-oxo-1,6-dihydro-3-pyridazinyl)-2-pyrazinecarboxamide], the melting point was 132 to 135 °C.
Same read-out and setting: to `CC(C)n1nc(-c2nc(C(N)=O)c(N)nc2-c2cccs2)ccc1=O` [Example 191, 3-amino-6-(1-isopropyl-6-oxo-1,6-dihydro-3-pyridazinyl)-5-(2-thienyl)-2-pyrazinecarboxamide] belongs 238 to 240 °C.
On the same count and under the same terms, to `CC(C)n1nc(-c2nc(C(N)=O)c(N)nc2-c2ccccc2Br)ccc1=O` [Example 192, 3-amino-5-(2-bromophenyl)-6-(1-isopropyl-6-oxo-1,6-dihydro-3-pyridazinyl)-2-pyrazinecarboxamide] belongs 240 to 243 °C.
On the same count and under the same terms, to `COc1ccc(-c2nc(N)c(C(N)=O)nc2-c2ccc(=O)n(C(C)C)n2)cn1` [Example 194, 3-amino-6-(1-isopropyl-6-oxo-1,6-dihydro-3-pyridazinyl)-5-(6-methoxy-3-pyridyl)-2-pyrazinecarboxamide] belongs 250 to 252 °C.
`CC(C)n1nc(-c2nc(C#N)c(C#N)nc2-c2ccccc2Br)ccc1=O` [Example 195, 5-(2-bromophenyl)-6-(1-isopropyl-6-oxo-1,6-dihydro-3-pyridazinyl)-2,3-pyrazinedicarbonitrile] had a melting point of 159.5 to 161 °C.
On the same count and under the same terms, to `COc1ccc(CNc2nc(-c3ccccc3Br)c(-c3ccc(=O)n(C(C)C)n3)nc2C#N)cc1` [Example 196, 5-(2-bromophenyl)-6-(1-isopropyl-6-oxo-1,6-dihydro-3-pyridazinyl)-3-[(4-methoxybenzyl)amino]-2-pyrazinecarbonitrile] belongs 76 to 78 °C; to `CC(C)n1nc(-c2nc(N)c(C#N)nc2-c2ccccc2Br)ccc1=O` [Example 197, 3-amino-6-(2-bromophenyl)-5-(1-isopropyl-6-oxo-1,6-dihydro-3-pyridazinyl)-2-pyrazinecarbonitrile], 241 to 243 °C.
For `CC(C)n1nc(-c2nc(C(=O)O)c(N)nc2-c2ccccc2Br)ccc1=O` [Example 198, 3-amino-5-(2-bromophenyl)-6-(1-isopropyl-6-oxo-1,6-dihydro-3-pyridazinyl)-2-pyrazinecarboxylic acid], the melting point is 237 °C (dec.).
On the same count and under the same terms, the figure for `CC(C)n1nc(-c2ncc(N)nc2-c2ccccc2Br)ccc1=O` [Example 199, 6-[5-amino-3-(2-bromophenyl)-2-pyrazinyl]-2-isopropyl-3(2H)-pyridazinone] is 189 to 191 °C.
